Tested on: trigeminal system
Assay: Lateralization task (odorant applied into only one nostril)
Assay type: in vivo, human
Conditions: pure concentration; number of correct tasks out of 20; eucalyptol 4 trials, vanillin 6 trials
Text: SMELL-S and SMELL-R were created with four different mixtures of 30 molecules drawn from a panel of 109 monomolecular, intensity-matched chemicals. These odorants were selected from stimuli utilized in previous psychophysical studies (21, 38). We used only molecules that minimally activated the trigeminal system, because such stimuli can be detected by anosmic subjects (39, 40). A characteristic of trigeminal activation by a molecule is a fresh, cold, burning, eucalyptus, pungent, or tickling sensation. We used a lateralization task in which an odorant is applied into only one nostril to assign a lateralization score to each molecule. It is possible to localize the stimulated nostril if it activates the trigeminal system. In contrast, it is much harder to localize an olfactory stimulus (41). Lateralization tasks were self-administered by one investigator. Two disposable squeeze bottles were placed in a device facilitating simultaneous squeezing and stimuli delivery in each nostril. Only one bottle was filled with an odor stimulus. The tip of each bottle was fitted with a foam piece that conformed to the investigator's nostril, and placed at the entrance of each nostril. The investigator squeezed both bottles simultaneously and attempted to localize which nostril had received the stimulus. After each task, the device was spun on a rotating platform to randomize the odor-stimulus side. […]

COc1cc(C=O)ccc1O [vanillin]
lateralization score (median): 6.5

CC12CCC(CC1)C(C)(C)O2 [eucalyptol]
lateralization score (median): 20
